Assay results taken from patent US20080241258A1, “TREATMENT OF DISEASES WITH NANOPARTICLES HAVING A SIZE-DEPENDENT CYTOTOXICITY” (priority 2007, published 2008).

Tests used:
[1] = Stability (aggregation) of Au compounds in serum containing cell culture media, scored from microscopic pictures; type: physicochemical; parameters: key: Material aggregation was scored positive (+); negative (−); details: for Aggregation at 12 hours: sign after slash; for Aggregation at 5 minutes: sign in front of slash
Excerpt: Next applicant tested the stability of the materials in the serum containing cell culture media formulated for proper growth of the cell lines used in this study. Applicant reasoned that the medium composition might affect particle aggregation and that aggregation of materials would greatly influence the endocytic pathway and ultimately the cellular trajectories of materials precluding or favoring intracellular targets. Macroscopic and microscopic aspects of medium-material combinations in the absence of any cells were studied by applicant.
Materials were grouped according to their stability in specific media and over time.
Material stability was assayed in DMEM high glucose (H). DMEM low glucose (L) and RPMI 1640 including 10% fetal calf serum. Material aggregation was scored positive (+) or negative (−) from microscopic pictures taken after 5 minutes (sign in from of slash) and 12 hours incubation (sign after slash).

[2] = system: HeLa, SK-MeI-28, L929 and J774A1 cells; experiment: MTT cytotoxicity assay in four cell lines
Excerpt: Applicant tested the cytotoxicity of these particles in four cell lines representing major functional cell types with barrier and phagocyte function.
Applicant added Au compounds to HeLa cervix carcinoma epithelial cells (HeLa), SK-MeI-28 melanoma cells (SK-MeI-28), L929 mouse fibroblasts (L929) and J774A.1 mouse monocytic/macrophage cells (J774A1) and first studied their response by light and electron microscopy.
Applicant quantified the toxicity of Au compounds in four cell lines determining the inhibitory concentrations that effected 50% growth inhibition (IC50) in MTT assays. […] Thus, applicant determined growth curves for all cell lines to estimate the logarithmic and stationary growth phases in relation to the number of cells seeded into each well of a 96-well cell culture plate.
Having established growth characteristics for the reporter cell lines applicant treated the cells with Au compounds for up to 48 hours to observe the full effect of toxicity. […] Applicant performed toxicity tests both during the logarithmic and the stationary phase of cell growth following the time course depicted in FIG. 2, lower panels.
FIG. 3 A): HeLa cells were plated at 2000 cells/well and grown for 3 days into the logarithmic growth phase. […] All concentrations relate to the amount of gold [Au] detected by AAS in the authentic samples after performing the cytotoxicity test. […]

[3] = system: HeLa cervix carcinoma epithelial cells; experiment: MTT cytotoxicity assay, logarithmic growth phase; type: cell-based; details: FIG. 3A, at ˜10 μM ligand
Excerpt: Applicant quantified the toxicity of Au compounds in four cell lines determining the inhibitory concentrations that effected 50% growth inhibition (IC50) in MTT assays. Applicant reasoned that actively growing and dividing cells during logarithmic growth should be more vulnerable to toxic insults than cells in near or at the stationary phase of cell culture. Thus, applicant determined growth curves for all cell lines to estimate the logarithmic and stationary growth phases in relation to the number of cells seeded into each well of a 96-well cell culture plate. […] This graph serves as a reference to estimate whether cells were in the logarithmic or in the stationary phase of cell culture at the start of any given experiment. […] The bottom panel depicts the protocol of cytotoxicity testing starting during the logarithmic (left bottom panel) or the stationary growth phase (right bottom panel).
Having established growth characteristics for the reporter cell lines applicant treated the cells with Au compounds for up to 48 hours to observe the full effect of toxicity. […]
FIG. 3 A): HeLa cells were plated at 2000 cells/well and grown for 3 days into the logarithmic growth phase. […] Shown are the logarithmic curve fits of tabulated MTT readings. […] All concentrations relate to the amount of gold [Au] detected by AAS in the authentic samples after performing the cytotoxicity test. […]

[4] = DMEM high glucose (H) including 10% fetal calf serum
[5] = DMEM low glucose (L) including 10% fetal calf serum
[6] = RPMI 1640 including 10% fetal calf serum

Row | Compound | Aggregation at 12 hours [1, 4] | Aggregation at 5 minutes [1, 4] | Aggregation at 12 hours [1, 5] | Aggregation at 5 minutes [1, 5] | Aggregation at 12 hours [1, 6] | Aggregation at 5 minutes [1, 6] | non-toxic at up to x fold higher concentration (than 1.4 nm nanoclusters) ([2]; four cell lines) | IC50 ([2]; read-out: cytotoxicity: non-toxic at concentrations up to, all cells tested) [mM] | ligand toxicity [3]
1 | [Au+3].[Cl-].[Cl-].[Cl-].[Cl-].[H+] [HAuCl4] | −/− | −/− | −/− | −/− | −/− | −/− |  |  | 
2 | gold thiomalate [Tauredon] | +/+ | +/+ | +/+ | +/+ | + | − | up to 1000 fold | > 10 | 
3 | [Cl][Au-]([Cl])([Cl])[Cl].[Na+] [NaAuCl4] | −/− | −/− | −/− | −/− | −/− | −/− |  |  | 
4 | O=S(=O)([O-])c1cccc(P(c2cccc(S(=O)(=O)[O-])c2)c2cccc(S(=O)(=O)[O-])c2)c1.[Na+].[Na+].[Na+] [TPPTS, triphenylphosphine trisulfonate] | −/− | −/− | −/− | −/− | −/− | −/− |  |  | non-toxic
5 | O=S(=O)([O-])c1cccc(P(c2ccccc2)c2ccccc2)c1.[Na+] [TPPMS, triphenylphosphine monosulfonate] | −/− | −/− | −/− | −/− | −/− | −/− |  |  | non-toxic
